# Laboratory results: patent publication US10722516B2, “Use of landiolol hydrochloride in the long-term treatment of tachyarrhythmias” (AOP Orphan Pharmaceuticals AG, priority 2013, dated 2020)
# “Also recorded” adds a separate entry of the source. Counter-ions that a name gives are not always drawn.
# Experiments:
# healthy volunteers [1] = test: 24 h long-term infusion study, AOP LDLL600 against esmolol: heart rate; format: in vivo, human; settings: for heart rate: Table 1
# Method: (§1) A single centre prospective, randomized, double blind, crossover, pharmacokinetic, safety and tolerability study to compare long-term infusion administration of AOP LDLL600 against esmolol in healthy volunteers was performed.
# (§2) Landiolol hydrochloride lyophilized (LDLL600) comprises 600 mg landiolol hydrochloride, 600 mg mannitol, pH 6.5. The primary packing of LDLL600 is 50 ml vial, the reconstitution volume is 50 ml and the final product concentration is 12 mg/mL landiolol HCl.
# (§3) 12 subjects were administered AOP LDLL600 or Esmolol (Brevibloc, 2500 mg/250 ml) in 1:1 ratio in double-blind, randomized, cross-over setting. PK, systemic cardiovascular and local tolerability and safety of the 24 h-long term infusions of three dose levels of both IMPs during each treatment period were assessed.
# (§4) Landiolol was infused over 24 h in a dose of 10 μg/KG/min (2 hrs), followed by 20 μg/KG/min (2 hrs), followed by 40 μg/KG/min for 20 hrs.
# (§5) Dosing algorithm was body weight divided by 20, 10 and 5 in ml/h giving 10, 20 and 40 μg/KG/min at a concentration of 12 mg/ml. No severe adverse drug reactions, mild local reactions, 1 severe local reaction (Esmolol High Dose).
# (§6) Landiolol was infused over 24 h in a dose of 10, 20 and 40 μg/KG/min, i.e. 10 μg/KG/min landiolol were administered for 2 hrs, followed by 2 hrs administration of 20 μg/KG/min and further followed by 20 hrs administration of 40 μg/KG/min.
# Post-infusion follow up measurements were performed immediately after 20 hrs administration study, i.e. 2, 4 min etc. after stop of landiolol administration.
# healthy volunteers [2] = test: 24 h long-term infusion study: local tolerability and safety; format: in vivo, human; settings: 24 h infusion
# Method: as §1, §2, §3, §4, §5, §6
# [3] = target: adrenergic β1 adrenoreceptor (Homo sapiens, UniProt P08588); settings: bolus followed by a continuous infusion; cited from earlier work
# [4] = LD infusion (landiolol 10, esmolol 50 μg/kg/min), 6 min
# [5] = LD infusion (landiolol 10, esmolol 50 μg/kg/min), 8 min
# [6] = LD infusion (landiolol 10, esmolol 50 μg/kg/min), 12 min
# [7] = LD infusion (landiolol 10, esmolol 50 μg/kg/min), 16 min
# [8] = LD infusion (landiolol 10, esmolol 50 μg/kg/min), 20 min
# [9] = LD infusion (landiolol 10, esmolol 50 μg/kg/min), 30 min
# [10] = LD infusion (landiolol 10, esmolol 50 μg/kg/min), 60 min
# [11] = LD infusion (landiolol 10, esmolol 50 μg/kg/min), 90 min
# [12] = LD infusion (landiolol 10, esmolol 50 μg/kg/min), 2 h
# [13] = MD infusion (landiolol 20, esmolol 100 μg/kg/min, after 2 h LD), 2 min
# [14] = MD infusion (landiolol 20, esmolol 100 μg/kg/min, after 2 h LD), 3 min
# [15] = MD infusion (landiolol 20, esmolol 100 μg/kg/min, after 2 h LD), 4 min
# [16] = MD infusion (landiolol 20, esmolol 100 μg/kg/min, after 2 h LD), 6 min
# [17] = MD infusion (landiolol 20, esmolol 100 μg/kg/min, after 2 h LD), 8 min
# [18] = MD infusion (landiolol 20, esmolol 100 μg/kg/min, after 2 h LD), 16 min
# [19] = MD infusion (landiolol 20, esmolol 100 μg/kg/min, after 2 h LD), 20 min
# [20] = MD infusion (landiolol 20, esmolol 100 μg/kg/min, after 2 h LD), 30 min
# [21] = MD infusion (landiolol 20, esmolol 100 μg/kg/min, after 2 h LD), 60 min
# [22] = MD infusion (landiolol 20, esmolol 100 μg/kg/min, after 2 h LD), 90 min
# [23] = MD infusion (landiolol 20, esmolol 100 μg/kg/min, after 2 h LD), 2 h
# Chain of adrenergic β1 adrenoreceptor (P08588 whole entry, the tested form may be a part): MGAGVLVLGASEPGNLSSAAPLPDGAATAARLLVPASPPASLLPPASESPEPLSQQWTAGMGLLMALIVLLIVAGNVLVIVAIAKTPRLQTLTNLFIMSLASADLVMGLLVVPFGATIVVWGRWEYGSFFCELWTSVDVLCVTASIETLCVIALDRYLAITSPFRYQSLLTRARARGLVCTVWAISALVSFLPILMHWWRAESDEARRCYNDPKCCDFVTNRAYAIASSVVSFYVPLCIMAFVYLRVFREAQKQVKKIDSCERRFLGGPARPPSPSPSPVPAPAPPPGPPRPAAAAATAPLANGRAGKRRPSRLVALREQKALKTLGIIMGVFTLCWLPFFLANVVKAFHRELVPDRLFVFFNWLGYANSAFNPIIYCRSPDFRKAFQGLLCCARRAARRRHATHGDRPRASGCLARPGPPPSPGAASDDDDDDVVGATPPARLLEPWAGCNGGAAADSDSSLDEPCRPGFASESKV
smiles,measurement,setting,value
"COC(=O)CCc1ccc(OCC(O)CNC(C)C)cc1 (stereo not drawn) [Esmolol, Esmolol hydrochloride]","change of heart rate from predose, Mean (SD)",healthy volunteers [1]; [4],−1.6 (5.96) beats per minute
same,"heart rate, Mean (SD)",healthy volunteers [1]; [4],66.0 (4.52) beats per minute
same,"change of heart rate from predose, Mean (SD)",healthy volunteers [1]; [5],−2.1 (7.05) beats per minute
same,"heart rate, Mean (SD)",healthy volunteers [1]; [5],65.5 (4.35) beats per minute
same,"change of heart rate from predose, Mean (SD)",healthy volunteers [1]; [6],−2.4 (6.77) beats per minute
same,"heart rate, Mean (SD)",healthy volunteers [1]; [6],65.2 (4.74) beats per minute
same,"change of heart rate from predose, Mean (SD)",healthy volunteers [1]; [7],−2.3 (7.58) beats per minute
same,"heart rate, Mean (SD)",healthy volunteers [1]; [7],65.4 (5.51) beats per minute
same,"change of heart rate from predose, Mean (SD)",healthy volunteers [1]; [8],−2.0 (9.49) beats per minute
same,"heart rate, Mean (SD)",healthy volunteers [1]; [8],65.6 (7.07) beats per minute
same,"change of heart rate from predose, Mean (SD)",healthy volunteers [1]; [9],−5.1 (6.29) beats per minute
same,"heart rate, Mean (SD)",healthy volunteers [1]; [9],62.6 (5.05) beats per minute
same,"change of heart rate from predose, Mean (SD)",healthy volunteers [1]; [10],−4.1 (8.00) beats per minute
same,"heart rate, Mean (SD)",healthy volunteers [1]; [10],63.6 (4.67) beats per minute
same,"change of heart rate from predose, Mean (SD)",healthy volunteers [1]; [11],−3.5 (6.55) beats per minute
same,"heart rate, Mean (SD)",healthy volunteers [1]; [11],64.1 (4.99) beats per minute
same,"change of heart rate from predose, Mean (SD)",healthy volunteers [1]; [12],−3.9 (7.12) beats per minute
same,"heart rate, Mean (SD)",healthy volunteers [1]; [12],63.8 (4.89) beats per minute
same,"change of heart rate from predose, Mean (SD)",healthy volunteers [1]; MD Predose (end of 2 h LD),−3.9 (7.12) beats per minute
same,"heart rate, Mean (SD)",healthy volunteers [1]; MD Predose (end of 2 h LD),63.8 (4.89) beats per minute
same,"change of heart rate from predose, Mean (SD)",healthy volunteers [1]; [13],−4.3 (10.36) beats per minute
same,"heart rate, Mean (SD)",healthy volunteers [1]; [13],63.4 (7.88) beats per minute
same,"change of heart rate from predose, Mean (SD)",healthy volunteers [1]; [14],−5.1 (8.40) beats per minute
same,"heart rate, Mean (SD)",healthy volunteers [1]; [14],62.6 (5.50) beats per minute
same,"change of heart rate from predose, Mean (SD)",healthy volunteers [1]; [15],−2.7 (8.96) beats per minute
same,"heart rate, Mean (SD)",healthy volunteers [1]; [15],64.9 (9.04) beats per minute
same,"change of heart rate from predose, Mean (SD)",healthy volunteers [1]; [16],−3.8 (7.45) beats per minute
same,"heart rate, Mean (SD)",healthy volunteers [1]; [16],63.9 (5.10) beats per minute
same,"change of heart rate from predose, Mean (SD)",healthy volunteers [1]; [17],−5.6 (7.54) beats per minute
same,"heart rate, Mean (SD)",healthy volunteers [1]; [17],62.1 (4.46) beats per minute
same,"heart rate, Mean (SD)","healthy volunteers [1]; MD infusion (landiolol 20, esmolol 100 μg/kg/min, after 2 h LD), 12 min",61.8 (5.07) beats per minute
same,"change of heart rate from predose, Mean (SD)",healthy volunteers [1]; [18],−3.5 (7.14) beats per minute
same,"heart rate, Mean (SD)",healthy volunteers [1]; [18],64.1 (5.02) beats per minute
same,"change of heart rate from predose, Mean (SD)",healthy volunteers [1]; [19],−5.0 (7.34) beats per minute
same,"heart rate, Mean (SD)",healthy volunteers [1]; [19],62.6 (4.33) beats per minute
same,"change of heart rate from predose, Mean (SD)",healthy volunteers [1]; [20],−5.6 (8.20) beats per minute
same,"heart rate, Mean (SD)",healthy volunteers [1]; [20],62.1 (5.00) beats per minute
same,"change of heart rate from predose, Mean (SD)",healthy volunteers [1]; [21],−1.4 (10.41) beats per minute
same,"heart rate, Mean (SD)",healthy volunteers [1]; [21],66.2 (5.04) beats per minute
same,"change of heart rate from predose, Mean (SD)",healthy volunteers [1]; [22],−2.2 (8.59) beats per minute
same,"heart rate, Mean (SD)",healthy volunteers [1]; [22],65.4 (6.17) beats per minute
same,"change of heart rate from predose, Mean (SD)",healthy volunteers [1]; [23],−3.9 (7.75) beats per minute
same,"heart rate, Mean (SD)",healthy volunteers [1]; [23],63.7 (4.86) beats per minute
same,"heart rate, Mean (SD)",healthy volunteers [1]; Predose (before first IMP administration),67.6 (7.87) beats per minute
same,heart rate,healthy volunteers [1]; Control (before administration),67 beats per minute
same,heart rate,"healthy volunteers [1]; high dose (landiolol 40, esmolol 200 μg/kg/min), time 720 min",67.9 beats per minute
same,heart rate,"healthy volunteers [1]; high dose (landiolol 40, esmolol 200 μg/kg/min), time 1200 min",67.9 beats per minute
same,heart rate,"healthy volunteers [1]; low dose (landiolol 10, esmolol 50 μg/kg/min), time 12 min",65.2 beats per minute
same,heart rate,"healthy volunteers [1]; low dose (landiolol 10, esmolol 50 μg/kg/min), time 16 min",65.4 beats per minute
same,heart rate,"healthy volunteers [1]; low dose (landiolol 10, esmolol 50 μg/kg/min), time 30 min",62.6 beats per minute
same,heart rate,"healthy volunteers [1]; low dose (landiolol 10, esmolol 50 μg/kg/min), time 60 min",63.6 beats per minute
same,heart rate,"healthy volunteers [1]; low dose (landiolol 10, esmolol 50 μg/kg/min), time 120 min",63.8 beats per minute
same,heart rate,"healthy volunteers [1]; medium dose (landiolol 20, esmolol 100 μg/kg/min), time 240 min",63.7 beats per minute
same,heart rate,healthy volunteers [1]; time after administration 12 min (end at 1440 min),74.7 beats per minute
same,heart rate,healthy volunteers [1]; time after administration 16 min,74 beats per minute
same,heart rate,healthy volunteers [1]; time after administration 30 min,76.8 beats per minute
same,heart rate,healthy volunteers [1]; time after administration 60 min,73.1 beats per minute
same,heart rate,healthy volunteers [1]; time after administration 120 min,70.2 beats per minute
same,overshoot effect on heart rate,"healthy volunteers [1]; after termination of long term administration, hydrochloride",the heart rate and blood pressure raise immediately over control values; also recorded: significant tolerance and overshoot effect
same,additive effect of raising the dose (tolerance state),"healthy volunteers [1]; esmolol MD, HD",does not provide any additive effect
same,heart rate effect during administration,healthy volunteers [1]; long term administration,relative increase of the heart rate and blood pressure already after 60 minutes of administration
same,tolerance effect,healthy volunteers [1]; long term administration,significant tolerance and overshoot effect
same,remark on heart rate response after infusion stop,"healthy volunteers [1]; remark column of Table 2, FU time points 20 h 6 min to 21 h",overshoot
same,remark on heart rate response during infusion,"healthy volunteers [1]; remark column of Table 2, time points MD 60 min to HD 20 h (end)",Tolerance state
same,local reactions (percent of subjects),healthy volunteers [2]; three dose levels,50.0%
same,local reactions (subjects/total),healthy volunteers [2]; three dose levels,7/14
same,severe local reaction (number),healthy volunteers [2]; Esmolol High Dose (200 μg/kg/min),1
same,onset of activity,[3],≤ 2 min
same,time to 90% of steady-state beta-blockade,[3],≤ 5 min
